Assay results reported in patent US20090057617A1, “Corrosion inhibitors containing anionic surfactants” (priority 2007, published 2009).

Assay: Shell wheel test (corrosion inhibition)
Conditions: 50 ppm of a 24% solution of the inhibitor; salt water/petroleum mixture 9:1, 5% NaCl, pH 3.5; 40 rpm, 70° C., 24 hours; from decrease in coupon mass, based on a blank value
Method: The compounds according to the invention were tested as corrosion inhibitors in the Shell wheel test. Coupons of C steel (DIN 1.1203 with 15 cm^2 surface area) were immersed in a salt water/petroleum mixture (9:1,5% strength NaCl solution adjusted to pH 3.5 with acetic acid) and exposed to this medium at a speed of 40 rpm at 70° C. for 24 hours. The inhibitor dose was 50 ppm of a 24% solution of the inhibitor. The protection values were calculated from the decrease in the mass of the coupons, based on a blank value.

SMILES: CCCCCCCC/C=C\CCCCCCCC(=O)NC(CCSC)C(=O)[O-].[K+] (racemic) [example 2, N-Oleoyl-DL-methionine potassium Salt]
- ø protection %: 69%
